Experimental data taken from paper PMC11673756, “Urolithin A Protects Hepatocytes from Palmitic Acid-Induced ER Stress by Regulating Calcium Homeostasis in the MAM” (Biomolecules, 2024).

Target: T1, CCDC47 (Coiled-Coil Domain Containing 47) (Homo sapiens, UniProt Q96A33)
T1 construct: endogenous CCDC47 in HepG2 cells
T1 sequence (Q96A33 21-483): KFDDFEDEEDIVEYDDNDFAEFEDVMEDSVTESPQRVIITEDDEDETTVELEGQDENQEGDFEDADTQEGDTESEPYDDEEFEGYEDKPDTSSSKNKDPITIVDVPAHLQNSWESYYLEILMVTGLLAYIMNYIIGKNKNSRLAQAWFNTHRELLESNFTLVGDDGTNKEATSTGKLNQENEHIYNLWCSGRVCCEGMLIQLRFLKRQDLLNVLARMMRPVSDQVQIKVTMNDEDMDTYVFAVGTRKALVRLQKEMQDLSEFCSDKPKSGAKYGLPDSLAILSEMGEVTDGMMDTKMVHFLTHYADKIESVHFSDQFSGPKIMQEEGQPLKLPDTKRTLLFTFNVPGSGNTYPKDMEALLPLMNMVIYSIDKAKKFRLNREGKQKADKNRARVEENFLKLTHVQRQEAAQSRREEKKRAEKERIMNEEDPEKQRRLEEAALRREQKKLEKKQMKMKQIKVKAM
Test: isothermal CETSA at […] °C
Format: cell-based

For O=c1oc2cc(O)ccc2c2ccc(O)cc12 [UA, Urolithin A], the EC50 was about 38 µM.
